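Five compound concentrations were applied to cells in 96-well plates for 48 hours; endpoints were derived by simple linear interpolation of the resulting dose-response curve. GI50: concentration for 50% inhibition of growth.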 The source made the active and inactive calls. Rule as the data show it: active = GI50 up to about 1.1 µM and inactive = higher.

These results are taken from ChEMBL document CHEMBL1201862, “PubChem BioAssay data set” (2004).

Test systems include SF-295; SK-MEL-5; UO-31; HOP-62; A549; UACC-62; HOP-92; K562; EKVX; MDA-MB-435; SK-OV-3; RPMI-8226; OVCAR-4; UACC-257; T47D; HT-29; HL-60; SF-268; MDA-N.
Holding throughout (test): NCI tumour cell line growth inhibition, 48 h

On to `CN(Cc1cc(Cl)cc(Cl)c1O)Cc1c(O)ccc2ccccc12`, for which the GI50 in the experiment on SF-295 was 17.2 µM (inactive); with SK-MEL-5, 17.5 µM (inactive); in the experiment on UO-31, 17.3 µM (inactive); in the experiment on HOP-62, 18.1 µM (inactive); in the experiment with A549, 26 µM (inactive); with UACC-62, 15.5 µM (inactive). Further, the GI50 in the experiment with HOP-92 is 20.1 µM (inactive); with K562, 26 µM (inactive); in the experiment with EKVX it was 20 µM (inactive); in the experiment with MDA-MB-435 it was 19.1 µM (inactive); in the experiment on SK-OV-3 it was 18.2 µM (inactive); in the experiment on RPMI-8226, 25 µM (inactive). Also, the GI50 is 17.1 µM (inactive) with OVCAR-4; 18.2 µM (inactive) with UACC-257; 19.2 µM (inactive) in the experiment with T47D; 27.9 µM (inactive) with HT-29; 25.4 µM (inactive) with HL-60; 13.6 µM (inactive) with SF-268. For the same compound, the GI50 in the experiment with MDA-N is 24.9 µM (inactive).

Consider `O=C1c2ccccc2C(=O)N1CCCSc1ccccc1`, for which the GI50 is 22.6 µM (inactive) with SF-295; 32.7 µM (inactive) in the experiment on SK-MEL-5; 60.5 µM (inactive) in the experiment with UO-31; > 100 µM (inactive) with HOP-62; 76.2 µM (inactive) with A549; 71.6 µM (inactive) in the experiment on UACC-62. Besides, the GI50 with HOP-92 is > 100 µM (inactive); in the experiment with K562 it was 77.1 µM (inactive); with EKVX it was 57.1 µM (inactive); with MDA-MB-435 it was > 100 µM (inactive); with SK-OV-3, > 100 µM (inactive); in the experiment on RPMI-8226 it was 42.8 µM (inactive). For the same compound, the GI50 is 71.9 µM (inactive) with OVCAR-4; 39.7 µM (inactive) in the experiment with UACC-257; 31.3 µM (inactive) in the experiment with T47D; 31.2 µM (inactive) with HT-29; 75.7 µM (inactive) with HL-60; > 100 µM (inactive) in the experiment with SF-268. The GI50 with MDA-N is 91.4 µM (inactive).

For the compound `c1cc2c(cc1NC1=NCCO1)CCCC2`, the GI50 was 4.02 µM (inactive) in the experiment on SF-295; 3.05 µM (inactive) in the experiment on SK-MEL-5; 6.97 µM (inactive) in the experiment on UO-31; 2.67 µM (inactive) in the experiment on HOP-62; 4.8 µM (inactive) in the experiment on A549; 4.11 µM (inactive) in the experiment on UACC-62. In addition, the GI50 in the experiment on HOP-92 is 2.86 µM (inactive); with K562, 2.45 µM (inactive); with EKVX, 8.04 µM (inactive); with MDA-MB-435, 1.57 µM (inactive); in the experiment with SK-OV-3, 4.38 µM (inactive); in the experiment on RPMI-8226 it was 2.92 µM (inactive). Moreover, the GI50 is 10.7 µM (inactive) with OVCAR-4; 3.77 µM (inactive) in the experiment on UACC-257; 10.6 µM (inactive) in the experiment on T47D; 2.62 µM (inactive) with HT-29; 2.66 µM (inactive) in the experiment on HL-60; 5.56 µM (inactive) in the experiment on SF-268. For the same compound, the GI50 in the experiment on MDA-N was 1.41 µM (inactive).

Take `C/C=C(\C)C(O)C(C)C(O)C/C=C(C)/C=C(\C)C/C(C)=C/C/C=C(\C)C(O)C(C)c1ccc(CCC)c(=O)o1` (stereo not given): the GI50 in the experiment with SF-295 was 0.349 µM (active); in the experiment with SK-MEL-5 it was 1.14 µM (inactive); in the experiment with UO-31 it was 7.82 µM (inactive); in the experiment with HOP-62, 16.2 µM (inactive); with A549, 3.57 µM (inactive); with UACC-62 it was 9.86 µM (inactive). Besides, the GI50 was 16.6 µM (inactive) in the experiment with HOP-92; 0.501 µM (active) in the experiment with K562; 17.5 µM (inactive) in the experiment on EKVX; 9.12 µM (inactive) in the experiment with MDA-MB-435; 32.2 µM (inactive) with SK-OV-3; 16.1 µM (inactive) with RPMI-8226. Besides, the GI50 with OVCAR-4 is 10 µM (inactive); in the experiment on UACC-257 it was 0.249 µM (active); in the experiment with T47D, 12.1 µM (inactive); in the experiment on HT-29 it was 1.69 µM (inactive); in the experiment on HL-60 it was > 100 µM (inactive); with SF-268 it was 15.8 µM (inactive). Further, the GI50 in the experiment on MDA-N is 8.77 µM (inactive).

For `COc1ccc2c3c1O[C@H](c1ccc(O)cc1)[C@H]3[N+](C)(C)CC2`, the GI50 with SF-295 was > 100 µM (inactive); in the experiment with SK-MEL-5, 86.3 µM (inactive); in the experiment with UO-31 it was > 100 µM (inactive); in the experiment on HOP-62 it was > 100 µM (inactive); in the experiment with A549, > 100 µM (inactive); with UACC-62, > 100 µM (inactive). The GI50 in the experiment with HOP-92 was > 100 µM (inactive); in the experiment on K562, 34.1 µM (inactive); in the experiment on EKVX, > 100 µM (inactive); in the experiment on MDA-MB-435, > 100 µM (inactive); in the experiment with SK-OV-3 it was > 100 µM (inactive); with RPMI-8226, 47.4 µM (inactive). In addition, the GI50 is 5.51 µM (inactive) with OVCAR-4; > 100 µM (inactive) with UACC-257; > 100 µM (inactive) in the experiment with T47D; > 100 µM (inactive) in the experiment with HT-29; 34.3 µM (inactive) with HL-60; > 100 µM (inactive) in the experiment on SF-268. In the experiment with MDA-N, the GI50 was > 100 µM (inactive).

For `CCCCOc1ccc(/C=C/C2=[N+](CCO)CCO2)cc1`, the GI50 in the experiment on SF-295 is 48.5 µM (inactive); in the experiment on SK-MEL-5, 68.5 µM (inactive); with UO-31, 32.1 µM (inactive); in the experiment with HOP-62, > 100 µM (inactive); in the experiment on A549, 55.3 µM (inactive); in the experiment on UACC-62 it was > 100 µM (inactive). Also, the GI50 with HOP-92 was 44.3 µM (inactive); in the experiment with K562, 24 µM (inactive); with EKVX, > 100 µM (inactive); with MDA-MB-435 it was > 100 µM (inactive); with SK-OV-3, > 100 µM (inactive); in the experiment with RPMI-8226 it was 26.8 µM (inactive). Moreover, the GI50 is > 100 µM (inactive) with OVCAR-4; > 100 µM (inactive) in the experiment with UACC-257; 30.5 µM (inactive) in the experiment on T47D; 17.6 µM (inactive) with HT-29; 21.7 µM (inactive) in the experiment on HL-60; > 100 µM (inactive) with SF-268. Moreover, in the experiment on MDA-N, the GI50 is > 100 µM (inactive).

`COc1cc(/C=C2\N=C(c3ccccc3)N(/N=C/c3cc4cc(C)ccc4nc3Cl)C2=O)cc(OC)c1OC`: the GI50 is 44.2 µM (inactive) in the experiment on SF-295; 37.9 µM (inactive) in the experiment with SK-MEL-5; 48.6 µM (inactive) with UO-31; 58.7 µM (inactive) with HOP-62; 36.4 µM (inactive) in the experiment with A549; 32.1 µM (inactive) in the experiment with UACC-62. In addition, the GI50 in the experiment with HOP-92 was 54.6 µM (inactive); in the experiment with K562, 35 µM (inactive); in the experiment with EKVX it was 54.5 µM (inactive); with MDA-MB-435, 15.8 µM (inactive); with SK-OV-3 it was 59.8 µM (inactive); in the experiment with RPMI-8226 it was 20.5 µM (inactive). The GI50 in the experiment with OVCAR-4 is 37.5 µM (inactive); in the experiment on UACC-257, 46.5 µM (inactive); in the experiment on T47D it was 18 µM (inactive); in the experiment with HT-29, 38.4 µM (inactive); in the experiment on HL-60, 10.5 µM (inactive); in the experiment on SF-268, 35.6 µM (inactive). The GI50 in the experiment on MDA-N was 21 µM (inactive).

Regarding `C/C=C/C=C/C1=NN(c2cccc(S(=O)(=O)O)c2)C2(C1)C(Cl)C(=O)N2c1nc2ccccc2s1` (stereo not given), the GI50 in the experiment with SF-295 was 16.3 µM (inactive); in the experiment with SK-MEL-5, 12.2 µM (inactive); in the experiment on UO-31 it was 2 µM (inactive); in the experiment on HOP-62, 14.7 µM (inactive); with A549, 14.6 µM (inactive); in the experiment on UACC-62, 13 µM (inactive). The GI50 is 24.5 µM (inactive) with HOP-92; 28.8 µM (inactive) in the experiment on K562; 16.4 µM (inactive) with EKVX; 13.4 µM (inactive) in the experiment on MDA-MB-435; 19.2 µM (inactive) in the experiment with SK-OV-3; 17.3 µM (inactive) in the experiment on RPMI-8226. For the same compound, the GI50 is 13.7 µM (inactive) with OVCAR-4; 15.4 µM (inactive) in the experiment on UACC-257; 4.6 µM (inactive) in the experiment on T47D; 17 µM (inactive) in the experiment with HT-29; 15.6 µM (inactive) in the experiment with HL-60; 16.6 µM (inactive) with SF-268. The GI50 in the experiment with MDA-N is 15.5 µM (inactive).

Turning to `CCCCn1c(C)c2c(c1C)C(=O)N(CC(O)CN1CCc3ccccc3C1)C2=O` (stereo not given), the GI50 was 42.4 µM (inactive) in the experiment with SF-295; 31.5 µM (inactive) in the experiment with SK-MEL-5; 59 µM (inactive) in the experiment on UO-31; > 100 µM (inactive) in the experiment with HOP-62; 88.3 µM (inactive) in the experiment with A549; 60 µM (inactive) in the experiment with UACC-62. Moreover, the GI50 in the experiment with HOP-92 was > 100 µM (inactive); with K562, 47.2 µM (inactive); in the experiment with EKVX, 12.3 µM (inactive); in the experiment with MDA-MB-435, 60.1 µM (inactive); with SK-OV-3, > 100 µM (inactive); in the experiment on RPMI-8226 it was 76.9 µM (inactive). Moreover, the GI50 is 56.9 µM (inactive) in the experiment on OVCAR-4; 33.4 µM (inactive) with UACC-257; 35.6 µM (inactive) with T47D; 37.8 µM (inactive) in the experiment with HT-29; 98.4 µM (inactive) in the experiment with HL-60; > 100 µM (inactive) with SF-268. For the same compound, the GI50 with MDA-N was 70 µM (inactive).

`COC(=O)C1C2OC(C)(C)OC2CN1S(=O)(=O)c1ccc(C)cc1` (stereo not given): the GI50 in the experiment on SF-295, with SK-MEL-5, with UO-31, in the experiment with HOP-62, in the experiment with A549 and in the experiment on UACC-62 was > 100 µM (inactive) throughout. The GI50 in the experiment with HOP-92 was > 100 µM (inactive); in the experiment on K562, > 100 µM (inactive); with EKVX, 8.04 µM (inactive); in the experiment on MDA-MB-435 it was > 100 µM (inactive); in the experiment on SK-OV-3, > 100 µM (inactive); with RPMI-8226, > 100 µM (inactive). Further, the GI50 in the experiment on OVCAR-4, in the experiment with UACC-257, in the experiment on T47D, in the experiment on HT-29, in the experiment with HL-60 and with SF-268 was > 100 µM (inactive) throughout. The GI50 with MDA-N is > 100 µM (inactive).
